# Measurements from patent EP0232423A1, “CIRCULATION IMPROVING AGENT” (GRELAN PHARMACEUTICAL CO., LTD., priority 1985, dated 1987).
# Counter-ions that a name gives are not always drawn.
# Columns and labels:
# [1] = test system: isolated femoral artery; test: Relaxation of isolated femoral artery contracted by 50 mM KCl; type: cell-based, Mongrel dogs; details: Canis lupus familiaris, 50 mM KCl contraction
# Description: (§1) Mongrel dogs of either sex (body weight 10-17 kg) were killed by bleeding under anesthetization with pentobarbital sodium (tradename: Nembutai ® Abbott Co., USA). Thereafter, the basilar and femoral arteries were extracted and attached blood and connective tissues were carefully removed in a dish filled with Krebs bicarbonate solution (composition: NaCl 117.7 mM, KC1 4.7 mM, CaCl2 2.5 mM, MgSo4 1.2 mM, glucose 10 mM, NaHCO3 24.4 mM). Thereafter, ring preparations were made therefrom. This preparation was suspended in a bathing tube of 10 ml filled with Krebs bicarbonate solution aerated with 95 % 02 and 5 % C02.
# (§2) Then, samples of basilar and femoral arteries were contracted by application of 50 mM KC1. After confirming that the contraction was sustained, (a) compound (I) (erythro form) lactate, (b) compound (I) (threo form) lactate and (c) ifenprodil; [2-(4-benzyl- piperidino-l-(4-hydroxyphenyl)propane-l-ol] tartrate were, respectively, administered as test compounds and the dose-relaxation response was examined.
# (§3) A strain gauge transducer (model SB-lT manufactured by Nihon Koden Co.) was employed for recording of change of tension and isometric contraction was recorded on a recorder (model QPD 53 made by Hitachi Ltd . ) .
# [2] = test system: isolated coronary artery; test: Relaxation of isolated coronary artery; type: cell-based, Mongrel dogs; details: Canis lupus familiaris, read-out: ED50 (the source's name)
# Description: as §1, §2, §3
# Experiments were conducted in accordance with the method of Test Example 2 with use of the coronary artery in place of the basilar and femoral arteries. […]
# [3] = test system: isolated basilar artery; test: Ca antagonistic action: Ca-induced contraction in K-depolarized basilar artery; type: cell-based, Mongrel dogs; details: Canis lupus familiaris, 0.25 h, 50 mM KCl, Ca-free bath, cumulative CaCl2, compound applied 15 minutes before, read-out: pA2 values on Ca-induced contraction in depolarized muscle by K (converted)
# Description: (§4) The same measurements as in Test Example 2 were carried out using the isolated basilar artery and isolated femoral artery treated in accordance with the method of Test Example 2.
# (§5) For examination of the Ca antagonistic action, the depolarization of both isolated arteries was induced with 50 mM KC1 in a bathing solution from which Ca had been removed and then CaCl2 was cumulatively applied thereto. As test compounds, (a) compound (I) (erythro form) lactate and (b) ifenprodil tartrate were applied at 15 minutes before addition of CaCl2.
# [4] = test system: isolated femoral artery; test: Ca antagonistic action: Ca-induced contraction in K-depolarized femoral artery; type: cell-based, Mongrel dogs; details: Canis lupus familiaris, 0.25 h, 50 mM KCl, Ca-free bath, cumulative CaCl2, compound applied 15 minutes before, read-out: pA2 values on Ca-induced contraction in depolarized muscle by K (converted)
# Description: as §4, §5
# [5] = test system: ddY male mice; test: Thromboembolic respiratory depression induced by ADP; type: in vivo; details: 30 mg/kg oral, ADP 40 mg/kg i.v., Compound (I) = erythro form
# Description: The degree of formation of platelet thrombi in the pulmonary vessels of mice induced by intravenous administration of ADP can be measured based on the decrease in the respiratory rate. The anti-platelet thrombotic action of test drugs can be evaluated by using this decrease in the respiratory rate as a standard. […] Relative respiratory rate (%) was calculated according to the following formula. [formula] (cf. "Thrombosis Research", Vol. 35, Page 311, 1984)
# [6] = test system: mice; test: Protective action on death caused by endotoxin shock; type: in vivo; details: for Number of survival after administration of endotoxin: of 15 (Compound (I)) or 14 (ifenprodil) animals
# Description: Compound (I) and ifenprodil tartrate were orally administered to mice and the protective action on death due to endotoxin shock was examined in accordance with a known method (Folia pharmacol. japon, vol. 86, page 17, 1985). The control group was drug-untreated.
# [7] = test system: α1-adrenoceptor; test: Antagonism of phenylephrine (α1-agonist) contraction in saphenous vein; type: cell-based, Mongrel dogs; details: α1 - agonist: phenylephrine; saphenous vein; 15 minutes treatment
# Description: (§6) In this experiment, phenylephrine and clonidine were used as al-agonist and a2-agonist, respectively, and these agonists were cumulatively applied to obtain a dose-response curve.
# [8] = test system: α2-adrenoceptor; test: Antagonism of clonidine (α2-agonist) contraction in saphenous vein; type: cell-based, Mongrel dogs; details: α2 - agonist: clonidine, competitive antagonism, 15 min
# Description: as §6
# [9] = test system: ddY male mice; test: Ameliorative activity against damage of cerebral hypoxia (reduced pressure); type: in vivo
# Description: Thirty mg/kg each of compound (I) (lactate) and ifenprodil tartrate and 16 mg/kg of phentolamine, which is an a-adrenoceptor blocker, were intraperitoneally administered to ddY male mice, respectively. […] Time from start of reduction of pressure until stop of respiration in the mice was measured. The control group was drug-untreated.
# [10] = test system: ddY male mice; test: Prolongation of gasping time in complete cerebral ischemic (decapitated) animals; type: in vivo; details: for Ratio of time (%): prolongation as compared with the control group; for Duration time of gasping: decapitated after 30 minutes
# Description: After 30 minutes from administration, the.mice were decapitated and the duration time of gasping was measured. The control group was drug-untreated.
# [11] = test system: isolated femoral artery; test: K-induced 45Ca influx in isolated femoral artery; type: cell-based, Mongrel dogs; details: 10^-5 M + 50 mM KCl
# Description: (§7) Using the isolated basilar artery and femoral artery treated in accordance with Test Example 2, the activity of (a) compound (I) (lactate), (b) ifenprodil tartrate and (c) verapamil hydrochloride against ^45Ca influx and ^45Ca uptake were examined by the conventional method (J. Membran. Biol., vol. 59, page 19, 1981).
# [12] = test system: isolated femoral artery; test: K-induced 45Ca uptake in isolated femoral artery; type: cell-based, Mongrel dogs; details: 50 mM KCl alone 586.0 ± 17.9
# Description: as §7
# [13] = test system: isolated basilar artery; test: PGF2α-induced 45Ca uptake in isolated basilar artery; type: cell-based, Mongrel dogs; details: 10^-5 M + 10^-5 M PGF2α; PGF2α alone 166.2 ± 6.0
# Description: as §7
compound,measurement,setting,value
CC(C(O)c1ccc(O)cc1)N1CCC(Cc2ccccc2)CC1 (stereo not shown) [Ifenprodil tartrate],inhibition at 50 µM,"[1]; 5 x 10^-5 M, mean, n = 4 - 5",49.8%
same,inhibition at 100 µM,"[1]; 10^-4 M, mean, n = 4 - 5",75.9%
same,inhibition at 10 µM,"[1]; 10^-5 M, mean, n = 4 - 5",2.8%
same,inhibition at 1 µM,"[1]; 10^-6 M, mean, n = 4 - 5",0%
same,inhibition at 0.1 µM,"[1]; 10^-7 M, mean, n = 4 - 5",0%
same,EC50,"[1]; relaxation of isolated femoral artery, read-out: ED50 (the source's name)",52 µM
same,EC50,[2],26 µM
same,Kb,[3],5.37 µM
same,Kb,[4],29.5 µM
same,Relative respiratory rate (%),[5]; 1/3 hr after administration,34.6 ±10.2 (n=8) %
same,Relative respiratory rate (%),[5]; 1 hr after administration,61.3 ±9.3 (n=6) %
same,Relative respiratory rate (%),[5]; 2 hr after administration,52.7 ±6.1 (n=10) %
same,Relative respiratory rate (%),[5]; 3 hr after administration,41.0 ±4.4 (n=8) %
same,Relative respiratory rate (%),[5]; 5 hr after administration,23.0 ±9.9 (n=7) %
same,Number of survival after administration of endotoxin,"[6]; 70 mg/kg oral, 18 hr",11
same,Number of survival after administration of endotoxin,"[6]; 70 mg/kg oral, 20 hr",9
same,Number of survival after administration of endotoxin,"[6]; 70 mg/kg oral, 22 hr",6
same,Number of survival after administration of endotoxin,"[6]; 70 mg/kg oral, 24 hr",2
same,Number of survival after administration of endotoxin,"[6]; 70 mg/kg oral, 48 hr",0
same,Number of survival after administration of endotoxin,"[6]; 200 mg/kg oral, 18 hr",11
same,Number of survival after administration of endotoxin,"[6]; 200 mg/kg oral, 20 hr",9
same,Number of survival after administration of endotoxin,"[6]; 200 mg/kg oral, 22 hr",7
same,Number of survival after administration of endotoxin,"[6]; 200 mg/kg oral, 24 hr",7
same,Number of survival after administration of endotoxin,"[6]; 200 mg/kg oral, 48 hr",5
same,protective action on the death (endotoxin shock),"[6]; oral, mice, compound (I) at 200 mg/kg",no such effect
same,pA2 value,[7],8.22 ± 0.29
same,pA2 value,[8],8.31
same,Time required for stoppage of respiration,"[9]; 30 mg/kg intraperitoneally, 30 minutes before, pressure reduced to 160 mmHg",85.2 ± 4.1 s
same,effect on survival time (cerebral hypoxia),"[9]; i.p., 30 mg/kg compound (I) and ifenprodil tartrate, 16 mg/kg phentolamine",substantially no effect
same,Ratio of time (%),[10]; 10 mg/kg i.p.,10.0%
same,Duration time of gasping,[10]; 10 mg/kg intraperitoneally,23.0 ± 0.5 s
same,Ratio of time (%),[10]; 30 mg/kg i.p.,28.7%
same,Duration time of gasping,[10]; 30 mg/kg intraperitoneally,26.9 ± 1.2 s
same,K-induced ^45Ca influx in isolated femoral artery,"[11]; pre-incubation 15 min, 50 mM KCl alone 94.6 ± 5.2",99.8 ± 6.4 n mol/g wt. tissue
same,K-induced ^45Ca influx in isolated femoral artery,"[11]; pre-incubation 45 min, 50 mM KCl alone 98.4 ± 6.8",59.0 ± 9.8 n mol/g wt. tissue
same,K-induced ^45Ca influx in isolated femoral artery,[11]; pre-incubation 135 min,64.8 ± 7.5 n mol/g wt. tissue
same,K-induced ^45Ca uptake in isolated femoral artery,[12]; 5 x 10^-5 M + 50 mM KCl,471.2 ± 40.0 n mol/g wt. tissue
same,K-induced ^45Ca uptake in isolated femoral artery,[12]; 10^-4 M + 50 mM KCl,486.5 ± 20.9 n mol/g wt. tissue
same,K-induced ^45Ca uptake in isolated femoral artery,[12]; 10^-5 M + 50 mM KCl,635.2 ± 41.4 n mol/g wt. tissue
same,PGF2α-induced ^45Ca uptake in isolated basilar artery,[13],125.7 ± 5.6 n mol/g wt. tissue
